This note sets out measurements from patent publication US6303596A, “Use of taurolidine for treatment of leukemias” (priority 2000, dated 2001).

Holding throughout (type): cell-based, human
Assay [1] has as its system ECV304 (endothelial cells). The experiment in a line: growth rate (proliferation) after taurolidine treatment, ECV304. The note with it: ECV304, 50 and 100 μg/ml taurolidine. As to the method:
FIGS. 10A and 10B depict cell viability and growth rates for ECV304 cell line following taurolidine treatment, in terms of % trypan blue negative cells and % cell number, respectively. Cells were treated with various concentrations of taurolidine for 4 hours in AIM-V+0.01% BCS. After aliquots were collected for LDH assay, the remainder of the culture was rinsed in HBSS and resuspended in RPMI+10% BCS without taurolidine. Counts of trypan blue-negative cells (FIG. 10A), and total cell number (FIG. 10B), were recorded daily thereafter (with the measurement at Day 1 being made immediately after the 4 hour taurolidine treatment). Conditions were: no treatment (open circles); 25 μg/ml taurolidine (closed circles); 50 μg/ml taurolidine (open squares); 100 μg/ml taurolidine (closed squares); and vehicle alone (closed triangles). Doubling times were determined under each condition, and expressed as a percentage of the rate of doubling of untreated cells. These values are located to the right of the growth curves in (FIG. 10B). […]
HL-60 cells treated with 50 μl taurolidine. In these samples, LDH present in the culture medium was 8.3±2.3% of that released by completely lysed cells, compared with 2.3±0.8% measured in control cultures. […] After 4 hour treatment, cells were rinsed and returned to growth medium and monitored for viability and growth over the following 3 days. […]

The next assay has as its system Lymphocytes. As to the kind of experiment: tissue or blood. The note with it: for induction of apoptosis in lymphocytes: whole blood. How it is done: (§1) FIGS. 15A, 15B, and 15C depict TUNEL analysis of PBMC treated with taurolidine in whole blood, for control cells, taurolidine-treated cells, and anisomycin-treated cells, respectively . Cells were incubated with 500 μg/ml taurolidine for 4 hours, resuspended in fresh medium, incubated for two hours further and processed for TUNEL analysis. Parallel samples were stained with FITC-conjugated anti-CD14 and PI as described herein. Ten thousand events were recorded per sample. TUNEL signal (x -axis) is a measure of DNA fragmentation, while FSC (y-axis) is related to cell size. TUNEL-negative lymphocytes are bounded by rectangle R 1, while TUNEL-negative monocytes (CD 14 positive cells) are bounded by rectangle R2. R3 bounds the TUNEL-positive population of cells. There were minimal numbers of PI-positive cells in 6 hour samples (see Table VI).
(§2) In the second method, DNA fragmentation was detected via TUNEL assay according to the manufacturer's instructions. With this methodology, 2×10^6 cells were fixed with 2% paraformaldehyde, permeabilized with 0.1% Triton X-100/0.1% citrate, incubated at 37° C. with terminal deoxynucleotidyl transferase and FITC-dUTP, rinsed and analyzed by flow cytometry. Enhanced FITC signal indicates apoptosis-specific DNA fragmentation. Gavriali, et al, "Identification of programmed cell death in situ via specific labeling of nuclear DNA fragmentation," J Cell Biol 119:493 (1992). Parallel aliquots of unfixed cells were treated with PI and FITC-conjugated anti-CD14 and analyzed by flow cytometry, in order to identify cells with permeable cell membranes (since PI binds to DNA but is excluded from cells with intact plasma membranes) and also to determine the cell-specificity of the apoptotic signal.
(§3) Taurolidine at 100 μg/ml induced apoptosis of approximately 75% of purified peripheral blood monocytes when these cells were incubated in culture medium. However, in order to more closely mimic the milieu of leukocytes in vivo, induction of apoptosis in PBMC by taurolidine was studied in whole blood (anticoagulated with heparin). As before, apoptosis was quantitated by measuring the loss of monocytes from a TUTNEL-negative (no DNA fragmentation), CD 14 positive population of cells which was concomitant with the appearance of a TUNEL-positive population of cells. Treatment of PBMC in whole blood resulted
(§4) in a shift of the taurolidine dose-response curve. […] As a positive control for induction of apoptosis, some cells were treated with anisomycin, a protein synthesis inhibitor known to induce apoptosis in monocytes.
(§5) ^a Analysis by flow cytometry after staining cells with PI and
(§6) processing for TUNEL. Data are mean ± SD of 2 experiments.
(§7) ^b Percent of cells present in the TUNEL-negative region in control

Another assay concerns Monocytes. As to the kind of experiment: tissue or blood. How it is done: as §1, §2, §3, §4, §5, §6, §7
The next assay has as its system HL-60. The experiment in a line: TUNEL / propidium iodide flow cytometry, HL-60. The following applies: for % TUNEL-positive: HL-60, taurolidine 100 μg/ml or anisomycin 1 μg/ml for 4 h, assayed at 6 hours, mean ± SD. As to the method: as §2
Consequently, TUNEL analysis was performed on PBMC at 3, 6, or 24 hours after treatment with 25 to 100 μg/ml taurolidine. Aliquots of harvested cells were also labeled with FITC-conjugated anti-CD14 antibodies and PI, which allowed identification of monocytes (CD14-positive cells) and cells with damaged cell membranes (PI-positive cells). […] Thus, nearly 75% of the monocytes were TUNEL-positive following treatment with 100 μg/ml taurolidine for six hours. Confirmation that the TUNEL-positive cells were monocytes was obtained by staining with FITC-conjugated anti-CD14.
In another study, TUNEL assays were performed on all cell lines 6 hours after cells were initially exposed to taurolidine (cells were treated for 4 hours, rinsed, and then incubated for 2 more hours before TUNEL assay was performed).
. Taurolidine and anisomycin induced apoptosis in MM6, HL-60, and Jurkat cells (Table VIII). MM6 and HL-60 cells were similarly effected, with >80% TUNEL-positive cells after 6 hours. Jurkat cells were less sensitive, with approximately 50% of cells induced to undergo apoptosis after taurolidine treatment. After 6 hours, 73% of anisomycin-treated REH cells were apoptotic, with less than 20% of taurolidine-treated REH cells being TUNEL-positive. However, assay of cells 24 hours after
^a Analysis by flow cytometry after staining cells with propidium
iodide and processing for TUNEL.
Data are percent of total cell-size events, and are expressed as mean ±
Cells were treated for 4 hours with taurolidine (100 μg/ml) or
anisomycin (1 μg/ml), and then assayed at 6 hours.

The test system of another assay is GM5387. The experiment in a line: subcellular-sized events by flow cytometry, GM5387. The note with it: GM5387, after taurolidine treatment. How it is done:
Less than 0.1% of ECV304 or GM5387 cells were TUNEL-positive 6 hours after treatment with taurolidine or anisomycin (Table VIII). Therefore, neither of these agents induce rapid DNA fragmentation in these cell types. However, there was approximately a 70% increase in the number of subcellular-sized events recorded by flow cytometry after taurolidine treatment of these cells, indicating some effect of taurolidine on cell integrity. These cell fragments were not stained by propidium iodide, consistent with them being apoptotic bodies.
A general note: Flow cytometry measures light scatter and fluorescence of single cells or particles in a stream.

The mark [2] stands for this setting: Homo sapiens, Lymphocyte, 6 h, read-out: % TUNEL-negative.
Where [3] appears, read: Homo sapiens, Monocyte, 6 h, read-out: % TUNEL-negative.

SMILES strings stand for the structures.

Regarding `O=S1(=O)CCN(CN2CCS(=O)(=O)NC2)CN1` [taurolidine, 4,4'-methylenebis(perhydro-1,2,4-thiadiazin 1,1-dioxide)], the proliferation after treatment entry in assay [1] is given as “inhibited proliferation”. The viability at 200 µg/mL with Lymphocytes (setting [2]) turned out to be 92.7 ± 6%; with Monocytes (setting [3]) it was 117 ± 11.2%. Also, the viability at 500 µg/mL in the assay with Lymphocytes (setting [2]) is 91.8 ± 6.9%; with Monocytes (setting [3]) it was 27.9 ± 12%. Also, the “induction of apoptosis in lymphocytes” value in the assay with Lymphocytes is given as “no evidence for a significant effect”; in the assay with Lymphocytes (taurolidine up to 500 μg/ml), “does not induce a significant amount of apoptosis”. Further, the cytotoxicity at 500 µg/mL in the assay with Monocytes (Homo sapiens, Monocyte, read-out: loss of TUNEL-negative monocytes) worked out at 70%. Further, the “induction of apoptosis in whole blood” value in the assay on Monocytes (up to 200 μg/ml taurolidine) was “did not induce significant apoptosis”. Further, in the assay on Monocytes (whole blood versus purified PBMC in culture medium), the “effective concentration in whole blood relative to culture medium” value came to 5 times. In addition, the “% TUNEL-Negative Cells” value in the assay with HL-60 (HL-60, 50 μg/ml, 3 hours) is 35%. The “% TUNEL-positive” value in the assay on HL-60 is 91.9 ± 10.9%; in the assay on HL-60 (listed as Taurolidine), greater than 80%. Moreover, the cytotoxicity at 50 µg/mL with HL-60 (Homo sapiens, HL-60, 3 h, read-out: % Propidium Iodide Positive Cells) came to 5%. Further, in the assay with GM5387, the “increase in the number of subcellular-sized events” value is given as roughly 70%.
